Data as given in patent US7732604B2, “Triazolopyrazine derivatives” (Pfizer Inc., priority 2006, dated 2010).
Counter-ions that a name gives are not always drawn.

What follows are molecules tested against T1, HGFR (Homo sapiens, UniProt P08581) (assay: HGFR continuous-coupled spectrophotometric assay (tyrosine kinase activity on Met-2 substrate peptide)). Details: HGFR 50 nM, Met-2 peptide 0.5 mM, ATP 300 μM, 37° C., absorbance 340 nm; read-out: Ki.
T1 construct: purchased Upstate 14-526
Format: biochemical

T1 sequence (P08581 974-1390 limits assumed): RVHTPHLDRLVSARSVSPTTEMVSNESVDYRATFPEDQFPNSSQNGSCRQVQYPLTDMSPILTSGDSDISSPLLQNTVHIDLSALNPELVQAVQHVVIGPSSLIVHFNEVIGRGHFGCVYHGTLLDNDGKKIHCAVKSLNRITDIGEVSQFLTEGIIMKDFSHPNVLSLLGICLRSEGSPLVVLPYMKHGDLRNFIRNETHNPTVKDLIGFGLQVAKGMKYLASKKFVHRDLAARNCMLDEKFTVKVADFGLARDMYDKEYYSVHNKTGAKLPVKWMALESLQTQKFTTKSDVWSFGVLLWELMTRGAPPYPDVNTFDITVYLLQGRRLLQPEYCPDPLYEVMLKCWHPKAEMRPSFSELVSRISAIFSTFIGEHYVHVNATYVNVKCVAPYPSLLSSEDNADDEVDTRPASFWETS

First: Brc1cnc2nnn(Cc3ccc4c(c3)CCO4)c2n1 [Example 41, 6-Bromo-1-(2,3-dihydro-benzofuran-5-ylmethyl)-1H-[1,2,3]triazolo[4,5-b]pyrazine]
Second: CN(C)c1cnc2nnn(Cc3ccc4ncccc4c3)c2n1 [Example 159, N,N-dimethyl-1-(quino-lin-6-yl-methyl)-1H-[1,2,3]tri-azolo[4,5-b]pyra-zin-6-amine]
The Ki of the first is 2.8-fold higher: 36 nM for the first, 13 nM for the second. The second binds more tightly here.

Compared with OC[C@@H]1C[C@H]1CNc1cnc2nnn(Cc3ccc4ncccc4c3)c2n1 [Example 127, [(1R,2R)-2-({[1-(quino-lin-6-yl-methyl)-1H-[1,2,3]tri-azolo[4,5-b]pyra-zin-6-yl]ami-no}methyl)cyclo-propyl]methanol], CC(O)CNc1cnc2nnn(Cc3ccc4ncccc4c3)c2n1 (centres unmarked) [Example 175, 1-{[1-(quinolin-6-yl-methyl)-1H-[1,2,3]tri-azolo[4,5-b]pyra-zin-6-yl]ami-no}propan-2-ol] is 5-fold lower in Ki: 40 nM for the first, 8 nM for the second.

Going from OCc1ccc(-c2cnc3nnn(Cc4ccc5ncccc5c4)c3n2)cc1 [Example 36, (4-(3-(quinolin-6-ylmethyl)-3H-[1,2,3]triazolo[4,5-b]pyrazin-5-yl)phenyl)methanol] to NCc1ccc(-c2cnc3nnn(Cc4ccc5ncccc5c4)c3n2)cc1 [Example 38, (4-(3-(quinolin-6-ylmethyl)-3H-[1,2,3]triazolo[4,5-b]pyrazin-5-yl)phenyl)methanamine], the Ki rises from 2 nM to 3 nM (1.5-fold).

First: Cc1cnc2nnn(C(C)c3ccc4c(c3)OCCO4)c2n1 (centres unmarked) [Example 180, 1-[1-(3,4-Dihydro-benzo[1,4]dioxin-6-yl)-eth-yl]-6-meth-yl-1H-[1,2,3]tri-azolo[4,5-b]pyrazine]
Second: O=C1CCN(c2cnc3nnn(Cc4ccc5ncccc5c4)c3n2)C1 [Example 154, 1-[1-(quinolin-6-yl-methyl)-1H-[1,2,3]tri-azolo[4,5-b]pyra-zin-6-yl]pyrro-lidin-3-one]
The Ki of the first is 11-fold higher: 412 nM for the first, 39 nM for the second. The second binds more tightly here.

CC(C)(C)OC(=O)NC1CCN(c2cnc3nnn(Cc4ccc5ncccc5c4)c3n2)CC1 [Example 34, tert-butyl 1-(3-(quinolin-6-ylmethyl)-3H-[1,2,3]triazolo[4,5-b]pyrazin-5-yl)piperidin-4-ylcarbamate] and CNC1CCN(c2cnc3nnn(Cc4ccc5ncccc5c4)c3n2)CC1 [Example 135, N-methyl-1-[1-(quino-lin-6-yl-methyl)-1H-[1,2,3]tri-azolo[4,5-b]pyra-zin-6-yl]pipe-ridin-4-amine] are within 1.5-fold of each other in Ki: 33 nM for the first, 35 nM for the second.

Compared with CCc1cnc2nnn(Cc3ccc4ncccc4c3)c2n1 [Example 52, 6-(6-Ethyl-[1,2,3]triazolo[4,5-b]pyrazin-1-ylmethyl)-quinoline], CCN(CCO)c1cnc2nnn(Cc3ccc4ncccc4c3)c2n1 [Example 74, 2-{ethyl[1-(quino-lin-6-yl-methyl)-1H-[1,2,3]tri-azolo[4,5-b]py-razin-6-yl]ami-no}ethanol] is 2.7-fold lower in Ki: 88 nM for the first, 33 nM for the second. The second binds more tightly here.

FC1(F)CCN([C@H]2CCN(c3cnc4nnn(Cc5ccc6ncccc6c5)c4n3)C2)CC1 [Example 207, 6-({6-[(3S)-3-(4,4-di-fluoropiperidin-1-yl)pyrro-lidin-1-yl]-1H-[1,2,3]tri-azolo[4,5-b]pyra-zin-1-yl}meth-yl)quinoline. TFA salt] and OC1CCN(C2CCN(c3cnc4nnn(Cc5ccc6ncccc6c5)c4n3)C2)CC1 (stereo in doubt) [Example 170, 1-[(3R)-1-[1-(quino-lin-6-yl-methyl)-1H-[1,2,3]tri-azolo[4,5-b]pyra-zin-6-yl]pyrro-lidin-3-yl}pipe-ridin-4-ol] are within 1.5-fold of each other in Ki: 23 nM for the first, 21 nM for the second.

Going from Cc1cn(-c2cnc3nnn(Cc4ccc5ncccc5c4)c3n2)cn1 [Example 16, 6-((6-(4-methyl-1H-imidazol-1-yl)-1H-[1,2,3]triazolo[4,5-b]pyrazin-1-yl)methyl)-quinoline] to CC(O)Cn1cc(-c2cnc3nnn(Cc4ccc5ncccc5c4)c3n2)cn1 (centres unmarked) [Example 59, 1-[4-(3-Quinolin-6-ylmethyl-3H-[1,2,3]triazolo[4,5-b]pyrazin-5-yl)-pyrazol-1-yl]-propan-2-ol], the Ki rises from 3 nM to 11 nM (3.7-fold). The first binds more tightly here.

N#CC1CCN(c2cnc3nnn(Cc4ccc5ncccc5c4)c3n2)CC1 [Example 86, 1-[1-(quinolin-6-yl-methyl)-1H-[1,2,3]tri-azolo[4,5-b]py-razin-6-yl]pipe-ridine-4-carbonitrile] and NC[C@H]1CCN(c2cnc3nnn(Cc4ccc5ncccc5c4)c3n2)C1 [Example 136, 1-[(3R)-1-[1-(quino-lin-6-yl-methyl)-1H-[1,2,3]tri-azolo[4,5-b]pyra-zin-6-yl]pyrro-lidin-3-yl}methanamine] are within 1.5-fold of each other in Ki: 21 nM for the first, 30 nM for the second.

Compared with c1cnc2ccc(Cn3nnc4ncc(N5CCC(CCn6cccn6)CC5)nc43)cc2c1 [Example 92, 6-[(6-{4-[2-(1H-pyra-zol-1-yl)eth-yl]piperidin-1-yl}-1H-[1,2,3]tri-azolo[4,5-b]pyra-zin-1-yl)meth-yl]quinoline], CCc1noc(C2CCN(c3cnc4nnn(Cc5ccc6ncccc6c5)c4n3)CC2)n1 [Example 102, 6-({6-[4-(3-eth-yl-124-oxa-diazol-5-yl)pipe-ridin-1-yl]-1H-[1,2,3]tri-azolo[4,5-b]pyra-zin-1-yl}meth-yl)quinoline] is 1.5-fold higher in Ki: 16 nM for the first, 24 nM for the second.

First: c1cnc2ccc(Cn3nnc4ncc(NCc5cc(C6CC6)[nH]n5)nc43)cc2c1 [Example 124, N-[(5-cyclo-propyl-1H-pyra-zol-3-yl)meth-yl]-1-(quino-lin-6-yl-methyl)-1H-[1,2,3]tri-azolo[4,5-b]pyra-zin-6-amine]
Second: CNC(=O)CCNc1cnc2nnn(Cc3ccc4ncccc4c3)c2n1 [Example 125]
The Ki of the first is 2.3-fold higher: 35 nM for the first, 15 nM for the second. The second binds more tightly here.

First: NC(=O)[C@H]1CCCN1c1cnc2nnn(Cc3ccc4ncccc4c3)c2n1 [Example 186, 1-[1-(quinolin-6-yl-methyl)-1H-[1,2,3]tri-azolo[4,5-b]pyra-zin-6-yl]-D-pro-linamide]
Second: NC(=O)C1(N)CCN(c2cnc3nnn(Cc4ccc5ncccc5c4)c3n2)C1 (centres unmarked) [Example 189]
The Ki of the first is 3-fold higher: 564 nM for the first, 187 nM for the second.

First: OCCC1(CO)CCN(c2cnc3nnn(Cc4ccc5ncccc5c4)c3n2)C1 (centres unmarked) [Example 106, 2-{3-(hydroxy-methyl)-1-[1-(quino-lin-6-ylmethyl)-1H-[1,2,3]tri-azolo[4,5-b]pyra-zin-6-yl]pyr-rolidin-3-yl}ethanol]
Second: NC(=O)c1cnc2nnn(Cc3ccc4ncccc4c3)c2n1 [Example 162, 1-(quinolin-6-yl-methyl)-1H-[1,2,3]tri-azolo[4,5-b]pyra-zine-6-carbox-amide]
The Ki of the first is 1.9-fold lower: 9 nM for the first, 17 nM for the second.

Compared with CC1C(=O)N(C)CCN1c1cnc2nnn(Cc3ccc4ncccc4c3)c2n1 (centres unmarked) [Example 88, 13-dimethyl-4-[1-(quino-lin-6-yl-methyl)-1H-[1,2,3]tri-azolo[4,5-b]pyra-zin-6-yl]pipe-razin-2-one], COc1ccc(-c2cnc3nnn(Cc4ccc5ncccc5c4)c3n2)cc1 [Example 21, 6-((6-(4-methoxyphenyl)-1H-[1,2,3]triazolo[4,5-b]pyrazin-1-yl)methyl)-quinoline] is 12-fold lower in Ki: 50 nM for the first, 4 nM for the second. The second binds more tightly here.

Work on COc1cccc(-c2cnc3nnn(Cc4ccc5ncccc5c4)c3n2)c1 [Example 20, 6-((6-(3-methoxyphenyl)-1H-[1,2,3]triazolo[4,5-b]pyrazin-1-yl)methyl)-quinoline] yielded a Ki of 3 nM.
